Structures are written as SMILES. Structures can show the parent of a compound that is named as a salt. Where two headings read alike, the source gives them in different places.

For one series, the system named is GH3-TRE-Luc cell line. The conditions noted are these: read-out: AC50 (uM) modified / 1000, viability, 1 nM T3 present, 24 h.
Another series in a line: in vitro. The conditions noted are these: rat, gh3-tre-luc cells, AC50 (uM) modified / 1000.

`COc1cc2c(cc1O)CCN[C@]21CS[C@@H]2c3c(OC(C)=O)c(C)c4c(c3[C@H](COC1=O)N1[C@@H]2[C@H]2c3c(cc(C)c(OC)c3O)C[C@@H]([C@@H]1O)N2C)OCO4` [Trabectedin]: the CC50 with GH3-TRE-Luc cell line (Tox21_110001=Tox21_113236) worked out at 0.0049 µM. The molecule also registered a CC50 at 24 h in the series “in vitro” of 0.00433 µM.
Regarding `CC1=C(/C=C/C(C)=C/C=C/C(C)=C/CO)C(C)(C)CCC1` [Retinol], the CC50 in the series on GH3-TRE-Luc cell line (Tox21_110001=Tox21_300287) was found to be 85.7 µM. Also, in the series “in vitro”, the CC50 at 24 h came to 63.5 µM.
Consider `CN(C)c1ccc(C(=N)c2ccc(N(C)C)cc2)cc1` [Auramine hydrochloride], for which, in the series on GH3-TRE-Luc cell line (Tox21_110001=Tox21_303002), the CC50 came out at 57.6 µM. Moreover, the CC50 at 24 h in the series “in vitro” was determined as 63.2 µM.
Regarding `Oc1ccc(Cl)cc1Cc1cc(Cl)ccc1O` [Dichlorophen], the results for the CC50 with GH3-TRE-Luc cell line (Tox21_110001=Tox21_111112) and in the series with GH3-TRE-Luc cell line (Tox21_110001=Tox21_303013) were 15.4 µM and 27.4 µM, respectively. For the same molecule, in “in vitro”, the CC50 at 24 h stood at 16.7 µM.
In the case of `COC1=CC(=O)C[C@@H](C)[C@]12Oc1c(Cl)c(OC)cc(OC)c1C2=O` [Griseofulvin], the CC50 in the series with GH3-TRE-Luc cell line (Tox21_110001=Tox21_303005) turned out to be 49.1 µM. The same molecule registered a CC50 at 24 h in “in vitro” above 90 µM.
For the molecule `ClC1=C(Cl)C(Cl)(Cl)C(Cl)=C1Cl` [Hexachlorocyclopentadiene], the CC50 with GH3-TRE-Luc cell line (Tox21_110001=Tox21_302780) was found to be 58 µM. The molecule also registered a CC50 at 24 h in “in vitro” above 90 µM.
For `O=S(=O)(O)c1cc(S(=O)(=O)O)c2c(N=Nc3ccccc3)c(O)ccc2c1` [C.I. Acid Orange 10], the CC50 in the series with GH3-TRE-Luc cell line (Tox21_110001=Tox21_303019) was found to be 48.6 µM. In the series “in vitro”, this molecule registered a CC50 at 24 h of 46.4 µM.
On to `Clc1ccc(C(c2ccccc2Cl)C(Cl)Cl)cc1` (stereo not drawn) [o,p'-DDD], for which, in the series with GH3-TRE-Luc cell line (Tox21_110001=Tox21_110103), the CC50 was 41.9 µM. Further, in “in vitro”, the CC50 at 24 h came to 56.7 µM.
As for `O=[N+]([O-])c1ccc(Nc2ccccc2)cc1` [4-Nitro-N-phenylaniline], the CC50 in the series on GH3-TRE-Luc cell line (Tox21_110001=Tox21_303333) was determined as 76.1 µM. The molecule further yielded a CC50 at 24 h in “in vitro” of 45.4 µM.
As for `C=CC(=O)OCCOCCOCCOCCOC(=O)C=C` [Tetraethylene glycol diacrylate], in the series on GH3-TRE-Luc cell line (Tox21_110001=Tox21_202993), the CC50 worked out at 17.8 µM. The same molecule registered a CC50 at 24 h in the series “in vitro” of 17.7 µM.
Consider `CC(C)Oc1cc(-n2nc(C(C)(C)C)oc2=O)c(Cl)cc1Cl` [Oxadiazon], for which the CC50 with GH3-TRE-Luc cell line (Tox21_110001=Tox21_300668) stood at 74.7 µM. The CC50 at 24 h in “in vitro” amounted to 50.6 µM.
Regarding `CCCCC/C=C\C/C=C\CCCCCCCC(=O)OC` [Methyl linoleate], the CC50 in the series on GH3-TRE-Luc cell line (Tox21_110001=Tox21_302917) amounted to 74 µM. In the series “in vitro”, this molecule had a CC50 at 24 h above 90 µM.
`Cc1cc(C(C)(C)CC(C)(C)C)ccc1OCCOCC[N+](C)(C)Cc1ccccc1` [Methylbenzethonium chloride]: the CC50 in the series with GH3-TRE-Luc cell line (Tox21_110001=Tox21_301446) was found to be 7.92 µM. Also, the CC50 at 24 h in the series “in vitro” is 9.38 µM.
For `CCCCCCc1ccc(O)cc1O` [4-Hexylresorcinol], in the series on GH3-TRE-Luc cell line (Tox21_110001=Tox21_300357), the CC50 is 56.7 µM. Moreover, in “in vitro”, the CC50 at 24 h worked out at 61 µM.
Consider `Cc1c(C)c2c(c(C)c1O)CCC(C)(COc1ccc(CC3SC(=O)NC3=O)cc1)O2` (stereo not drawn) [Troglitazone], for which the CC50 with GH3-TRE-Luc cell line (Tox21_110001=Tox21_112119) was determined as 41.3 µM. In addition, the CC50 at 24 h in the series “in vitro” worked out at 54.8 µM.
`O=C(O[C@@H]1Cc2c(O)cc(O)cc2O[C@@H]1c1cc(O)c(O)c(O)c1)c1cc(O)c(O)c(O)c1` [(-)-Epigallocatechin gallate]: the CC50 in the series with GH3-TRE-Luc cell line (Tox21_110001=Tox21_303457) was 50.7 µM. The same molecule came in with a CC50 at 24 h in “in vitro” of 48.4 µM.
`O=c1n(CC2CO2)c(=O)n(CC2CO2)c(=O)n1CC1CO1` (stereo not drawn) [Triglycidyl isocyanurate]: the CC50 is 26.2 µM in the series on GH3-TRE-Luc cell line (Tox21_110001=Tox21_111097) and 33.9 µM in the series on GH3-TRE-Luc cell line (Tox21_110001=Tox21_300119). In the series “in vitro”, this molecule returned a CC50 at 24 h of 27.2 µM.
Turning to `CN1CCc2cccc3c2[C@H]1Cc1ccc(O)c(O)c1-3` [Apomorphine hydrochloride hydrate], the CC50 in the series on GH3-TRE-Luc cell line (Tox21_110001=Tox21_303480) amounted to 26.7 µM. In addition, in “in vitro”, the CC50 at 24 h is 48.2 µM.
`CC[C@H](C)C(=O)O[C@H]1C[C@@H](C)C=C2C=C[C@H](C)[C@H](CC[C@@H]3C[C@@H](O)CC(=O)O3)[C@H]21` [Lovastatin]: the CC50 was 43 µM with GH3-TRE-Luc cell line (Tox21_110001=Tox21_110888) and 67 µM in the series on GH3-TRE-Luc cell line (Tox21_110001=Tox21_300268). Further, the CC50 at 24 h in the series “in vitro” stood at 73.4 µM.
Turning to `Clc1ccc(C(c2ccc(Cl)cc2)C(Cl)Cl)cc1` [p,p'-DDD], the CC50 with GH3-TRE-Luc cell line (Tox21_110001=Tox21_300191) was determined as 35.5 µM. The CC50 at 24 h in “in vitro” was 27.9 µM.
As for `CN(C)CCOc1ccc(/C(=C(/CCCl)c2ccccc2)c2ccccc2)cc1` [Toremifene citrate], the CC50 in the series on GH3-TRE-Luc cell line (Tox21_110001=Tox21_111877) turned out to be 11.4 µM. In “in vitro”, this molecule returned a CC50 at 24 h of 8.87 µM.
Turning to `c1cc(OCC2CO2)ccc1Cc1ccc(OCC2CO2)cc1` (stereo not drawn) [Bis[4-(glycidyloxy)phenyl]methane], in the series with GH3-TRE-Luc cell line (Tox21_110001=Tox21_303420), the CC50 is 48.6 µM. The CC50 at 24 h in the series “in vitro” was determined as 42.4 µM.
Take `O=c1c(O)c(-c2ccc(O)cc2)oc2cc(O)cc(O)c12` [Kaempferol]: in the series with GH3-TRE-Luc cell line (Tox21_110001=Tox21_303363), the CC50 is 50 µM. In addition, in “in vitro”, the CC50 at 24 h came out at 66.6 µM.
`Oc1ccc2cc(SSc3ccc4cc(O)ccc4c3)ccc2c1` [6-Hydroxy-2-naphthyl disulfide]: the CC50 with GH3-TRE-Luc cell line (Tox21_110001=Tox21_303354) came out at 81.2 µM. Moreover, in the series “in vitro”, the CC50 at 24 h is above 90 µM.
As for `CCOC(=O)C1=C[C@]2(CC)CCCN3CCc4c(n1c1ccccc41)[C@@H]32` [Vinpocetine], the CC50 with GH3-TRE-Luc cell line (Tox21_110001=Tox21_110839) is 12 µM. In the series “in vitro”, this molecule had a CC50 at 24 h of 22.7 µM.
For `O=C(Nc1cccc(C(F)(F)F)c1)c1cc(Br)cc(Br)c1O` [Fluorosalan], in the series on GH3-TRE-Luc cell line (Tox21_110001=Tox21_112749), the CC50 was found to be 3.92 µM. In “in vitro”, this molecule showed a CC50 at 24 h of 2.69 µM.
Regarding `CCN(CCN)c1cccc(C)c1` [N-Ethyl-N-(3-methylphenyl)ethane-1,2-diamine], the CC50 in the series on GH3-TRE-Luc cell line (Tox21_110001=Tox21_303371) is 69.9 µM. In “in vitro”, this molecule showed a CC50 at 24 h of 61.5 µM.
Turning to `C#CCOS(=O)OC1CCCCC1Oc1ccc(C(C)(C)C)cc1` (stereo not drawn) [Propargite], the CC50 in the series with GH3-TRE-Luc cell line (Tox21_110001=Tox21_300805) was determined as 7.01 µM. The CC50 at 24 h in the series “in vitro” came out at 5.83 µM.
Consider `O=c1[nH]c2ccccc2n1C1CCN(CCCC(c2ccc(F)cc2)c2ccc(F)cc2)CC1` [Pimozide], for which, in the series on GH3-TRE-Luc cell line (Tox21_110001=Tox21_110224), the CC50 came to 7.02 µM. Moreover, the CC50 at 24 h in the series “in vitro” stood at 8.93 µM.
Take `CC[C@H]1OC(=O)[C@H](C)[C@@H](O[C@H]2C[C@@](C)(OC)[C@@H](O)[C@H](C)O2)[C@H](C)[C@@H](O[C@@H]2O[C@H](C)C[C@H](N(C)C)[C@H]2O)[C@](C)(O)C[C@@H](C)CN(C)[C@H](C)[C@@H](O)[C@]1(C)O` [Azithromycin]: the CC50 in the series on GH3-TRE-Luc cell line (Tox21_110001=Tox21_111008) amounted to 35.5 µM. The molecule also showed a CC50 at 24 h in “in vitro” of 28.3 µM.
Take `CCCCCCCCCCCCOC(=O)c1cc(O)c(O)c(O)c1` [Lauryl gallate]: the CC50 with GH3-TRE-Luc cell line (Tox21_110001=Tox21_303487) was 3.66 µM. Besides, in the series “in vitro”, the CC50 at 24 h turned out to be 2.89 µM.
`CCCCCCCCCCCCc1ccccc1S(=O)(=O)O` [Sodium dodecylbenzenesulfonate]: the CC50 with GH3-TRE-Luc cell line (Tox21_110001=Tox21_300506) was found to be 77.4 µM. Besides, the CC50 at 24 h in the series “in vitro” amounted to 49.5 µM.
With `CC(C)C[C@H](NC(=O)[C@H](Cc1ccccc1)NC(=O)c1cnccn1)B(O)O` [Bortezomib], the CC50 in the series with GH3-TRE-Luc cell line (Tox21_110001=Tox21_112672) amounted to 0.00954 µM. This molecule also had a CC50 at 24 h in “in vitro” of 0.0167 µM.

Source of the values: publication PMC6792352, “Limited Chemical Structural Diversity Found to Modulate Thyroid Hormone Receptor in the Tox21 Chemical Library” (Environmental Health Perspectives, 2019).
